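In this assay, cells in 96-well plates receive the compound at five concentrations for 48 hours. Endpoints are linearly interpolated between the surrounding concentrations. GI50 is the concentration that inhibits growth by half. TGI is the concentration that stops growth completely.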
Assays:
Assay in all cases: NCI anticancer screen, dose series, 48 h
K-562 leukemia = test system: K-562 leukemia
SK-MEL-5 melanoma = test system: SK-MEL-5 melanoma
CCRF-CEM leukemia = test system: CCRF-CEM leukemia
UACC-257 melanoma = test system: UACC-257 melanoma
SN12C renal = test system: SN12C renal
DU-145 prostate = test system: DU-145 prostate
OVCAR-5 ovarian = test system: OVCAR-5 ovarian
MCF7 breast = test system: MCF7 breast
COLO 205 colon = test system: COLO 205 colon
SR leukemia = test system: SR leukemia
NCI-H23 lung = test system: NCI-H23 lung
OVCAR-8 ovarian = test system: OVCAR-8 ovarian
MDA-MB-231 breast = test system: MDA-MB-231 breast
MOLT-4 leukemia = test system: MOLT-4 leukemia
HS 578T breast = test system: HS 578T breast
SK-MEL-28 melanoma = test system: SK-MEL-28 melanoma
NCI-H460 lung = test system: NCI-H460 lung
786-0 renal = test system: 786-0 renal
SF-295 CNS = test system: SF-295 CNS
SK-OV-3 ovarian = test system: SK-OV-3 ovarian
TK-10 renal = test system: TK-10 renal
RXF 393 renal = test system: RXF 393 renal
NCI-H522 lung = test system: NCI-H522 lung
SF-539 CNS = test system: SF-539 CNS
OVCAR-4 ovarian = test system: OVCAR-4 ovarian
UACC-62 melanoma = test system: UACC-62 melanoma
HT29 colon = test system: HT29 colon
PC-3 prostate = test system: PC-3 prostate
UO-31 renal = test system: UO-31 renal
SK-MEL-2 melanoma = test system: SK-MEL-2 melanoma
HCC-2998 colon = test system: HCC-2998 colon
SF-268 CNS = test system: SF-268 CNS
CAKI-1 renal = test system: CAKI-1 renal
HOP-62 NSCLC = test system: HOP-62 NSCLC
M14 melanoma = test system: M14 melanoma
HOP-92 NSCLC = test system: HOP-92 NSCLC
KM12 colon = test system: KM12 colon
IGROV1 ovarian = test system: IGROV1 ovarian
ACHN renal = test system: ACHN renal
NCI-H226 lung = test system: NCI-H226 lung
SW-620 colon = test system: SW-620 colon
HCT-15 colon = test system: HCT-15 colon
MDA-MB-435 = test system: MDA-MB-435
EKVX NSCLC = test system: EKVX NSCLC
MALME-3M melanoma = test system: MALME-3M melanoma
OVCAR-3 ovarian = test system: OVCAR-3 ovarian
HCT-116 colon = test system: HCT-116 colon
A549 NSCLC = test system: A549 NSCLC
BT-549 breast = test system: BT-549 breast
T-47D breast = test system: T-47D breast
U251 CNS = test system: U251 CNS
RPMI-8226 leukemia = test system: RPMI-8226 leukemia
SNB-19 CNS = test system: SNB-19 CNS
NCI/ADR-RES ovarian = test system: NCI/ADR-RES ovarian
LOX IMVI melanoma = test system: LOX IMVI melanoma
HL-60(TB) leukemia = test system: HL-60(TB) leukemia

Compound: O=S(=O)(Nc1ccc(I)c(Cl)c1)c1ccc(-c2cnc(C3CC3)o2)cc1
- GI50 (K-562 leukemia): 0.456 µM
- TGI (K-562 leukemia): 27.4 µM
- GI50 (SK-MEL-5 melanoma): 2.7 µM
- TGI (SK-MEL-5 melanoma): 13.1 µM
- GI50 (CCRF-CEM leukemia): 0.877 µM
- TGI (CCRF-CEM leukemia): 23.1 µM
- GI50 (UACC-257 melanoma): 3.74 µM
- TGI (UACC-257 melanoma): 21.7 µM
- GI50 (SN12C renal): 3.17 µM
- TGI (SN12C renal): 15.2 µM
- GI50 (DU-145 prostate): 2.63 µM
- TGI (DU-145 prostate): 11.8 µM
- GI50 (OVCAR-5 ovarian): 3.06 µM
- TGI (OVCAR-5 ovarian): 13.3 µM
- GI50 (MCF7 breast): 0.454 µM
- TGI (MCF7 breast): 12 µM
- GI50 (COLO 205 colon): 3.04 µM
- TGI (COLO 205 colon): 15.6 µM
- GI50 (SR leukemia): 0.317 µM
- TGI (SR leukemia): 17.7 µM
- GI50 (NCI-H23 lung): 2.68 µM
- TGI (NCI-H23 lung): 14 µM
- GI50 (OVCAR-8 ovarian): 3.08 µM
- TGI (OVCAR-8 ovarian): 15.3 µM
- GI50 (MDA-MB-231 breast): 3.96 µM
- TGI (MDA-MB-231 breast): 19.4 µM
- GI50 (MOLT-4 leukemia): 1.39 µM
- TGI (MOLT-4 leukemia): 22.5 µM
- GI50 (HS 578T breast): 0.416 µM
- TGI (HS 578T breast): 3.01 µM
- GI50 (SK-MEL-28 melanoma): 3.13 µM
- TGI (SK-MEL-28 melanoma): 19.9 µM
- GI50 (NCI-H460 lung): 1.5 µM
- TGI (NCI-H460 lung): 10.2 µM
- GI50 (786-0 renal): 2.57 µM
- TGI (786-0 renal): 17.2 µM
- GI50 (SF-295 CNS): 0.362 µM
- TGI (SF-295 CNS): 1.41 µM
- GI50 (SK-OV-3 ovarian): 3.35 µM
- TGI (SK-OV-3 ovarian): 17.6 µM
- GI50 (TK-10 renal): 3.15 µM
- TGI (TK-10 renal): 17 µM
- GI50 (RXF 393 renal): 1.49 µM
- TGI (RXF 393 renal): 7.55 µM
- GI50 (NCI-H522 lung): 0.557 µM
- TGI (NCI-H522 lung): 7.49 µM
- GI50 (SF-539 CNS): 1.26 µM
- TGI (SF-539 CNS): 5.23 µM
- GI50 (OVCAR-4 ovarian): 3.3 µM
- TGI (OVCAR-4 ovarian): 14.9 µM
- GI50 (UACC-62 melanoma): 0.475 µM
- TGI (UACC-62 melanoma): 12.8 µM
- GI50 (HT29 colon): 0.994 µM
- TGI (HT29 colon): 5.8 µM
- GI50 (PC-3 prostate): 1.12 µM
- TGI (PC-3 prostate): 11.7 µM
- GI50 (UO-31 renal): 2.71 µM
- TGI (UO-31 renal): 15.5 µM
- GI50 (SK-MEL-2 melanoma): 1.31 µM
- TGI (SK-MEL-2 melanoma): 16.7 µM
- GI50 (HCC-2998 colon): 2.37 µM
- TGI (HCC-2998 colon): 11.2 µM
- GI50 (SF-268 CNS): 3.15 µM
- TGI (SF-268 CNS): 18.9 µM
- GI50 (CAKI-1 renal): 0.658 µM
- TGI (CAKI-1 renal): 14.9 µM
- GI50 (HOP-62 NSCLC): 1.59 µM
- TGI (HOP-62 NSCLC): 17.6 µM
- GI50 (M14 melanoma): 0.969 µM
- TGI (M14 melanoma): 12.3 µM
- GI50 (HOP-92 NSCLC): 0.434 µM
- TGI (HOP-92 NSCLC): 5.76 µM
- GI50 (KM12 colon): 0.888 µM
- TGI (KM12 colon): 12.4 µM
- GI50 (IGROV1 ovarian): 1.45 µM
- TGI (IGROV1 ovarian): 16.6 µM
- GI50 (ACHN renal): 3.03 µM
- TGI (ACHN renal): 16.8 µM
- GI50 (NCI-H226 lung): 3.97 µM
- TGI (NCI-H226 lung): 18.9 µM
- GI50 (SW-620 colon): 0.65 µM
- TGI (SW-620 colon): 13.4 µM
- GI50 (HCT-15 colon): 0.582 µM
- TGI (HCT-15 colon): 12.3 µM
- GI50 (MDA-MB-435): 0.259 µM
- TGI (MDA-MB-435): 0.817 µM
- GI50 (EKVX NSCLC): 2.85 µM
- TGI (EKVX NSCLC): 15.7 µM
- GI50 (MALME-3M melanoma): 1.5 µM
- TGI (MALME-3M melanoma): 23 µM
- GI50 (OVCAR-3 ovarian): 0.404 µM
- TGI (OVCAR-3 ovarian): 2.89 µM
- GI50 (HCT-116 colon): 1.13 µM
- TGI (HCT-116 colon): 11.9 µM
- GI50 (A549 NSCLC): 1.57 µM
- TGI (A549 NSCLC): 12.7 µM
- GI50 (BT-549 breast): 1.37 µM
- TGI (BT-549 breast): 16 µM
- GI50 (T-47D breast): 1.52 µM
- TGI (T-47D breast): 16.2 µM
- GI50 (U251 CNS): 1.53 µM
- TGI (U251 CNS): 12.6 µM
- GI50 (RPMI-8226 leukemia): 2.61 µM
- TGI (RPMI-8226 leukemia): 23.1 µM
- GI50 (SNB-19 CNS): 1.69 µM
- TGI (SNB-19 CNS): 17 µM
- GI50 (NCI/ADR-RES ovarian): 0.761 µM
- TGI (NCI/ADR-RES ovarian): 6.82 µM
- GI50 (LOX IMVI melanoma): 2.64 µM
- TGI (LOX IMVI melanoma): 17.7 µM
- GI50 (HL-60(TB) leukemia): 0.461 µM
- TGI (HL-60(TB) leukemia): 3.93 µM
